Like-named read-outs stand apart in the source and are kept apart here.
What was measured:
[1] = tested on: T. b. brucei 427 bloodstream forms; test: Resazurin-based T. b. brucei assay; format: cell-based; conditions: Trypanosoma brucei, 72 h, read-out: EC50 T. brucei
Method: Parasites strains adapted to culture in vitro were used. T. b. brucei Lister 427 bloodstream form parasites (information about the identity and genealogy of this strain is available at The Rockefeller University website) were grown in HMI-9 medium supplemented with 10% heat-inactivated fetal bovine serum (iFBS).
Cells in logarithmic phase of growth were added using a Multidrop dispenser (45 μL, 500 bloodstream T. b. brucei parasites per well) to 384-well Corning assay plates already containing 5 μL of each compound and controls, and incubated for 72 hours at 37°C. 10 μL of resazurin were added per well, and the plates were further incubated for 6 hours at 37°C. The final fluorescence was determined at 550–590 nm. Pentamidine at 40 nM and 0.0067% DMSO were used as […] growth controls, respectively.

[2] = tested on: L. donovani MHOM/ET/67/HU3 transgenic intracellular amastigotes; test: L. donovani intracellular amastigote assay (luciferase, THP-1 macrophages); format: cell-based; conditions: Leishmania donovani, THP-1, 72 h, read-out: EC50 L. donovani
Method: Leishmania donovani MHOM/ET/67/HU3 cells with the luciferase gene integrated into the parasite genome was obtained as described. Parasites were grown at 28°C in RPMI 1640-modified medium supplemented with 20% heat-inactivated fetal bovine serum (iFBS, Invitrogen) with […] of hygromycin B.
THP-1 cells were differentiated into macrophages with 20 ng/mL of PMA in a 96-well plate at 3 × 10^4 cells per well for 48 hours followed by 24 hours of culture in fresh medium. Cells were then infected with transgenic stationary L. donovani MHOM/ET/67/HU3 promastigotes expressing the luciferase gene at a multiplicity of infection (MOI) of 10. A volume of 100 μL of culture media containing the test compounds was added to each well and the plates were incubated at 37°C for 72 hours. Luminescence was measured using the Promega kit luciferase assay system.

[3] = tested on: T. cruzi Tulahuen C4 epimastigotes; test: T. cruzi epimastigotes growth inhibition assay (resazurin); format: cell-based, Trypanosoma cruzi; conditions: for EC50: Tulahuen C4, 72 h, resazurin; for EC30, epimastigotes / EC70, epimastigotes: from dose-response curve
Method: (§1) The Trypanosoma cruzi Tulahuen strain used is a genetically modified strain that expresses the Escherichia coli β-galactosidase gene, lacZ [31]. It was kindly supplied by Marcel Kaiser (Swiss Tropical and Public Health Institute). The T. cruzi Tulahuen C4 strain was cultured in RPMI-1640 supplemented with 10% inactivated FBS (iFBS), 1.7 mM L-glutamine, 100 U/mL penicillin, and […] at 37°C and 5% CO2. L6 rat skeletal muscle cells were purchased from ATCC (reference CRL-1458) and used as host cells for infection with transgenic T. cruzi trypomastigotes. Epimastigotes were obtained by differentiation in LIT medium with 10% iFBS at 28°C from trypomastigote forms.
A resazurin-based assay was set up in 96-well microplates containing 10 μL of test compound at concentrations ranging from 0.39 to 200 μM and log phase parasites seeded at 2 × 10^5 cells per well in a final volume of 100 μL. Maximum DMSO percentage in the well was 0.2%. Positive and negative growth controls were included. Following 72 hour incubation at 28°C with orbital shaking, 10 μL of resazurin solution were added to each well and the plates were returned to the incubator for 4 hours. Resazurin reduction was correlated to cell viability by fluorescence measurement with excitation and emission wavelength bands centered at 550 and 590 nm, respectively, in a Tecan Infinite 200 microplate reader.

[4] = tested on: T. cruzi Tulahuen C4 intracellular amastigotes; test: β-D-galactosidase transgenic T. cruzi assay (intracellular amastigotes in L6 cells, CPRG); format: cell-based; conditions: Trypanosoma cruzi; for inhibition at 0.00152588 µM / inhibition at 0.00305176 µM / inhibition at 0.00610352 µM / inhibition at 0.012207 µM / inhibition at 0.0244141 µM / inhibition at 0.0488281 µM / inhibition at 0.0976562 µM / inhibition at 0.195312 µM / inhibition at 0.390625 µM / inhibition at 0.78125 µM / inhibition at 1.5625 µM / inhibition at 3.125 µM / inhibition at 6.25 µM / inhibition at 12.5 µM / inhibition at 25 µM / inhibition at 50 µM: TULAHUEN, L6, T. cruzi amastigotes, 96-hour treatment, read-out: Growth inhibition (%) Average; for EC50: Tulahuen C4 in L6 cells, 96 h, CPRG
Method: as §1
A Thermo Scientific Multidrop Combi dispenser was used to dispense 55 μL of T. cruzi infected L6 cells (2 ×10^3 cells per well) into 384-well Corning assay plates already containing 5 μL of each compound at concentrations ranging from 0.0015 to 50 μM and controls. The plates were incubated at 37°C for 96 hours upon which 15 μL of lysis buffer (0.5 mM CPRG, 0.5% NP40) were added to each well and further incubated for 4 hours in the dark. Absorbance at 585 nm was measured in a Perkin Elmer Envision plate reader.

L6 rat myoblast cells = test: Cytotoxicity evaluation in L6 cells (resazurin); format: cell-based; conditions: for EC50: Rattus norvegicus, Myoblast, 72 h, read-out: EC50 L6
Method: One hundred microliters of supplemented RPMI 1640 medium containing the compounds and controls were added to L6 rat myoblast cells previously seeded (4,000 cells per well) in a 96-well microplate. After 72 hours at 37°C the viable cell number was determined by resazurin reduction. 20 μL of resazurin at 0.11 mg/mL in PBS 1X were added to each well and incubated in the dark for 2 hours at 37°C. Cell viability was estimated by measuring the final fluorescence at 570–590 nm in a Tecan Infinite F200 plate reader.

[5] = tested on: human macrophage THP-1 cells; test: Cytotoxicity in THP-1 macrophages (MTT); format: cell-based; conditions: for EC50: Homo sapiens, read-out: EC50 THP-1
Method: Cellular toxicity of compounds in the human macrophage host TPH-1 cell line was determined using the colorimetric MTT-based assay as previously described.
THP-1 cells were seeded at 3 × 10^4 cells/well in 96-well plates and were differentiated to macrophages with 20 ng/ml of PMA treatment for 48 h followed by 24 h incubation in fresh medium. Strasseriolides were added at increasing concentrations up to 50 μM and cells were further incubated at 37°C for 72 h. 10 μL of MTT (5 mg/mL in PBS) were added to each well, and plates were incubated for an additional period of 8 h at 37°C. Formazan crystals were dissolved by adding 50 μL of 20% SDS and absorbance was read at 595 nm using a microplate reader.

[6] = Trypanosoma cruzi, TULAHUEN, 72 h

SMILES: C/C1=C\[C@H](C)CCC(=O)/C(C)=C/[C@H](C)C[C@@H](C)CC[C@@H]([C@@H](C)C(=O)O)OC(=O)[C@@H](C)C1 [Strasseriolide A, strasseriolide A]
- EC50 [1]: 273 µM
- EC50 [2]: > 15 µM
- cell growth reduction, epimastigotes ([3]; 72-hour exposure, 50 μM): less than 50%
- EC50 [3, 6]: > 50 µM
- inhibition at 0.00152588 µM [4]: 11.7%
- inhibition at 0.00305176 µM [4]: 9.68%
- inhibition at 0.00610352 µM [4]: 6.95%
- inhibition at 0.012207 µM [4]: 5.87%
- inhibition at 0.0244141 µM [4]: 3.26%
- inhibition at 0.0488281 µM [4]: 6.89%
- inhibition at 0.0976562 µM [4]: 2.91%
- inhibition at 0.195312 µM [4]: 12.5%
- inhibition at 0.390625 µM [4]: 4.42%
- inhibition at 0.78125 µM [4]: 3.14%
- inhibition at 1.5625 µM [4]: 3.55%
- inhibition at 3.125 µM [4]: 3.27%
- inhibition at 6.25 µM [4]: 4.63%
- inhibition at 12.5 µM [4]: 11.4%
- inhibition at 25 µM [4]: 39.4%
- inhibition at 50 µM [4]: 86.7%
- EC50 [4]: 31000 nM
- Selectivity index T. cruzi Tulahuen C4 versus L6 cells (L6 rat myoblast cells): > 1
- EC50 (L6 rat myoblast cells; resazurin): > 50 µM
- Selectivity index intracellular L. donovani versus THP-1 cells [5]: > 8
- EC50 ([5]; THP-1, 72 h, MTT): > 125 µM

SMILES: C/C1=C\[C@H](C)CC[C@@H](O)/C(C)=C/[C@H](C)C[C@@H](C)CC[C@@H]([C@@H](C)C(=O)O)OC(=O)[C@@H](C)C1 [Strasseriolide B, strasseriolide B]
- EC50 [1]: 27 µM
- EC50 [2]: 0.032 µM
- EC50 [3, 6]: < 0.4 µM
- EC50 [3]: < 0.39 µM
- inhibition at 0.00152588 µM [4]: 4.52%
- inhibition at 0.00305176 µM [4]: 4.82%
- inhibition at 0.00610352 µM [4]: 6.25%
- inhibition at 0.012207 µM [4]: 11.4%
- inhibition at 0.0244141 µM [4]: 8.7%
- inhibition at 0.0488281 µM [4]: 6.79%
- inhibition at 0.0976562 µM [4]: 10.8%
- inhibition at 0.195312 µM [4]: 52.7%
- inhibition at 0.390625 µM [4]: 98.7%
- inhibition at 0.78125 µM [4]: 112%
- inhibition at 1.5625 µM [4]: 113%
- inhibition at 3.125 µM [4]: 113%
- inhibition at 6.25 µM [4]: 113%
- inhibition at 12.5 µM [4]: 113%
- inhibition at 25 µM [4]: 115%
- inhibition at 50 µM [4]: 117%
- EC50 [4]: 210 nM
- Selectivity index T. cruzi Tulahuen C4 versus L6 cells (L6 rat myoblast cells): 1
- EC50 (L6 rat myoblast cells): 0.3 µM
- Selectivity index intracellular L. donovani versus THP-1 cells [5]: 4962
- EC50 ([5]; THP-1, 72 h): 161 µM

SMILES: O=C(Cn1ccnc1[N+](=O)[O-])NCc1ccccc1 [Benznidazole, benznidazole]
- EC30, epimastigotes ([3]; 72 h): 7.5 µM
- EC70, epimastigotes ([3]; 72 h): 22.5 µM
- EC90 [3, 6]: 96 µM
- EC50 [3, 6]: 13 µM
- inhibition at 0.00152588 µM [4]: 5.83%
- inhibition at 0.00305176 µM [4]: 3.46%
- inhibition at 0.00610352 µM [4]: 5.29%
- inhibition at 0.012207 µM [4]: 6.58%
- inhibition at 0.0244141 µM [4]: 1.91%
- inhibition at 0.0488281 µM [4]: 12.4%
- inhibition at 0.0976562 µM [4]: 10.6%
- inhibition at 0.195312 µM [4]: 16.3%
- inhibition at 0.390625 µM [4]: 10.8%
- inhibition at 0.78125 µM [4]: 34.7%
- inhibition at 1.5625 µM [4]: 74%
- inhibition at 3.125 µM [4]: 104%
- inhibition at 6.25 µM [4]: 101%
- inhibition at 12.5 µM [4]: 103%
- inhibition at 25 µM [4]: 106%
- inhibition at 50 µM [4]: 105%
- EC50 [4]: 1000 nM

SMILES: C/C1=C\[C@H](C)C(=O)C[C@@H](O)/C(C)=C/[C@H](C)C[C@@H](C)CC[C@@H]([C@@H](C)C(=O)O)OC(=O)[C@@H](C)C1 [Strasseriolide C, strasseriolide C]
- EC50 [1]: 59.6 µM
- EC50 [2]: 6.63 µM
- EC30, epimastigotes ([3]; 72 h): 28 µM
- EC70, epimastigotes ([3]; 72 h): 47 µM
- EC50 [3, 6]: 32.4 µM
- inhibition at 0.00152588 µM [4]: 3.17%
- inhibition at 0.00305176 µM [4]: 3.11%
- inhibition at 0.00610352 µM [4]: 4.62%
- inhibition at 0.012207 µM [4]: 9.25%
- inhibition at 0.0244141 µM [4]: 4.92%
- inhibition at 0.0488281 µM [4]: 5.95%
- inhibition at 0.0976562 µM [4]: 2.24%
- inhibition at 0.195312 µM [4]: 5.83%
- inhibition at 0.390625 µM [4]: 4.94%
- inhibition at 0.78125 µM [4]: 4.24%
- inhibition at 1.5625 µM [4]: 15.3%
- inhibition at 3.125 µM [4]: 61.8%
- inhibition at 6.25 µM [4]: 96%
- inhibition at 12.5 µM [4]: 110%
- inhibition at 25 µM [4]: 112%
- inhibition at 50 µM [4]: 115%
- EC50 [4]: 3080 nM
- EC50 (L6 rat myoblast cells; resazurin): > 50 µM
- Selectivity index intracellular L. donovani versus THP-1 cells [5]: 68
- EC50 ([5]; THP-1, 72 h, MTT): 448 µM
